The values below come from patent US7101878B1 (Agouron Pharmaceuticals, Inc., priority 1998, dated 2006).

A value given as a limit tells only on which side of the number the result lay.

In data set [1] the target is T1, hGnRH receptor (Homo sapiens, UniProt P30968).
T1 construct: expressed in transfected cells; host or cells: HEK 293 (hGnRH-R/293, from Dr. Stuart Sealfon)
T1 sequence (P30968 1-328): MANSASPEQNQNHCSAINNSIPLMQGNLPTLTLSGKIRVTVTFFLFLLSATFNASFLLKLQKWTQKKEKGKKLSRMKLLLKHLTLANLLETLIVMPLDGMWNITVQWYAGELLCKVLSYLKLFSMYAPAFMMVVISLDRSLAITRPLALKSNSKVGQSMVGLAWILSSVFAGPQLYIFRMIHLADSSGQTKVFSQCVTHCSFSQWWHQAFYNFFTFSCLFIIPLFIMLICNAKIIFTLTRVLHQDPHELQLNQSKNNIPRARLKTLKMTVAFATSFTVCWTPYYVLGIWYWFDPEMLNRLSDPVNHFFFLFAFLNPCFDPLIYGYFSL
In words: Total inositol phosphates measurement, 293 cells containing the hGnRH receptor. The format is cell-based. Particulars: for GnRH functional: no species or readout annotated. The protocol:
To assess the activity of the compounds as agonists or antagonists, an assay measuring accumulation of total inositol phosphates was employed. 293 cells containing the hGnRH receptor were plated onto 24-well plates (approximately 200,000 cells/well) using DMEM media. […] The medium was aspirated and the cells rinsed with serum-free DMEM. The medium was aspirated and the cells were then treated with test compounds or vehicle for 30 minutes at 37° C. […] The media was replaced with ice-cold 10 mM formic acid, which stopped the reaction and also served to extract cellular lipids. Inositol phosphates were separated by ion-exchange chromatography on Dowex columns, which were washed with 2.5 mL of 10 mM myoinositol and 10 mM formic acid. The columns were then washed with 5 mL of 60 mM sodium formate and […], and total inositol phosphates were eluted with 5 mL 1M ammonium formate, 0.1 M formic acid. The column eluates were added to liquid scintillation vials containing 15 ml of scintillation cocktail and were counted by liquid scintillation counting.
This cell line was provided by Dr. Stuart Sealfon, Mount Sinai Medical School New York, N.Y. These cells were grown in DMEM supplemented with 0.2 g/L G418 100 U/ml penicillin/streptomycin and 10% FBS. Both GGH3 and hGnRH-R/293 cells were utilized for both for both total inositol phosphate measurement and for microphysiometry assessment of compound efficacy.

Data set [2] has as its system LH levels in castrated rats. Put plainly: Castrated male rat model, LH suppression. The format is in vivo. A digest of the protocol: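 Castrated male Sprague-Dawley rats, catheterised, given vehicle or compound iv, im, ip, sc or po after basal sampling (one protocol: 10 mg/kg iv in 10% DMSO/10% cremophor/saline). Blood drawn at multiple times up to 240 min. Serum or plasma LH measured by coated-tube immunoradiometric assay.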

Data set [3] is described as follows: Metabolism rate, pmol/min/mg at 1 μM, human. To be noted: 1 μM compound. The format is in vitro ADME.
The nature of data set [4]: Metabolism rate, pmol/min/mg at 1 μM, rat female. The format is in vitro ADME. To be noted: 1 μM compound.
Data set [5] in a line: Metabolism rate, pmol/min/mg at 1 μM, dog. Type of data set: in vitro ADME. To be noted: 1 μM compound.
A short description of data set [6]: Metabolism rate, pmol/min/mg at 1 μM, monkey. Particulars: 1 μM compound. The format is in vitro ADME.
The target in data set [7] is 5-HT7 (Homo sapiens, UniProt P34969). Put plainly: Selectivity: 5-HT7.
5-HT7, sequence (P34969 whole entry, species assumed): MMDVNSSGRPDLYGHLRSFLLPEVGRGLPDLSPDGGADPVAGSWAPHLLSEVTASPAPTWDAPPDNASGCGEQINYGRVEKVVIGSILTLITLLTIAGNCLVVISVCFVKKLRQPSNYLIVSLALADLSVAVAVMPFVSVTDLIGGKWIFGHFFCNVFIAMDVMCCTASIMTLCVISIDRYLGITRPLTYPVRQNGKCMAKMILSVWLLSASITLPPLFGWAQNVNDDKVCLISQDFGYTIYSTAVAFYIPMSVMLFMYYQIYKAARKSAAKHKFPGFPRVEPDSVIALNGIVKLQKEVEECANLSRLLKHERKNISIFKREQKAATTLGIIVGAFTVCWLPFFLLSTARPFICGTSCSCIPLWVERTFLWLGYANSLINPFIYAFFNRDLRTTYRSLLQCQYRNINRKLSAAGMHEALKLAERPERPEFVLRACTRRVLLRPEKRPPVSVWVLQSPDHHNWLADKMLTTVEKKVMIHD
For data set [8], the target named is 5-HT2a (Homo sapiens, UniProt P28223). In words: Selectivity: 5-HT2a.
5-HT2a, sequence (P28223 whole entry, species assumed): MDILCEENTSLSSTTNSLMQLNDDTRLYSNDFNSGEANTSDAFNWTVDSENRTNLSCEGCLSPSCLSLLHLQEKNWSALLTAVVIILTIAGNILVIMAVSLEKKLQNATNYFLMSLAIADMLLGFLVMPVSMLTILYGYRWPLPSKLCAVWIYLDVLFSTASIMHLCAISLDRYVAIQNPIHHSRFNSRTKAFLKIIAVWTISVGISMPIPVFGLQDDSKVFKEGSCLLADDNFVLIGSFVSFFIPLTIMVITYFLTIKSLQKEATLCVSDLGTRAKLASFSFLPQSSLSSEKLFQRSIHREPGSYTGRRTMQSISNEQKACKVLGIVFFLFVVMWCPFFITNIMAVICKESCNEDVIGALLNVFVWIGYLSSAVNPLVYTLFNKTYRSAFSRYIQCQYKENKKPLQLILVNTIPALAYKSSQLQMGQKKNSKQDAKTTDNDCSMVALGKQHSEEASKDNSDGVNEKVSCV
For data set [9], the target named is D2 Dopamine (Homo sapiens, UniProt P14416). In words: Selectivity: D2 Dopamine.
D2 Dopamine, sequence (P14416 whole entry): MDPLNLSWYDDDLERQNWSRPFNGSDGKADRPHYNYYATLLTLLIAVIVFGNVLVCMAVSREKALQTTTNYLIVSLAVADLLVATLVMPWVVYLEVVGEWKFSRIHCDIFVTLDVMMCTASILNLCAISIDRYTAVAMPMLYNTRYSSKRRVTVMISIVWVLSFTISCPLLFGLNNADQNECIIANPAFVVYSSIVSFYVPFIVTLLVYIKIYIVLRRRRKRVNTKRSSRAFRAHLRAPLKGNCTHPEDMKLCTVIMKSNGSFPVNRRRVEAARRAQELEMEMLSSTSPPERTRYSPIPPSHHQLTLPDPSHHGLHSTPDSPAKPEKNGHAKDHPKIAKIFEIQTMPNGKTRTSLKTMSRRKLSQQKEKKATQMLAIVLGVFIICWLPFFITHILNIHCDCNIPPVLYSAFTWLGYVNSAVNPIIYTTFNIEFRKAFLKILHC

Broadly, the Ki is a measure of affinity in units of concentration, obtained from inhibition or displacement. On to `COc1cc(OC)c(NC(=O)c2ccc(Cc3cc4c(cc3C)C(C)(C)CCC4(C)C)o2)c(OC)c1` [Compound 134], for which the Kb in data set [1] (human, PI (inositol phosphates)) came out at 13 nM. Moreover, in data set [1], the GnRH functional result is “Antag- onist”. Besides, the “% Max LH Suppression” value in data set [2] (1.0 mg/kg iv) was found to be 24%; in [2] (5.0 mg/kg iv) it was 70%; in data set [2] (10 mg/kg iv), 100%; in [2] (20 mg/kg im) it was 73%; in data set [2] (20 mg/kg ip), 80%; in data set [2] (20 mg/kg po), 62%. In addition, the “% Max LH Suppression” value is given as 53% in [2] (20 mg/kg sc); 98% in [2] (100 mg/kg im); 98% in data set [2] (100 mg/kg ip); 84% in data set [2] (100 mg/kg po); 80% in data set [2] (100 mg/kg sc). For the same compound, the “time of % Max LH Suppression” value in data set [2] (1.0 mg/kg iv) was determined as 0.5 h; in data set [2] (5.0 mg/kg iv) it was 0.5 h; in data set [2] (10 mg/kg iv), 0.5 h; in data set [2] (20 mg/kg im), 2 h; in data set [2] (20 mg/kg ip), 2 h; in [2] (20 mg/kg po) it was 4 h. Besides, the “time of % Max LH Suppression” value in data set [2] (20 mg/kg sc) is 8 h; in [2] (100 mg/kg im), 2 to 24 h; in data set [2] (100 mg/kg ip), 4 h; in [2] (100 mg/kg po) it was 4 h; in [2] (100 mg/kg sc) it was 6 h. Further, the “≧50% Suppression Duration” value turned out to be 2 h in data set [2] (10 mg/kg iv); 8 h in [2] (20 mg/kg im); 4 h in data set [2] (20 mg/kg ip); 4 h in data set [2] (20 mg/kg po); 8 h in data set [2] (20 mg/kg sc); 24 h in [2] (100 mg/kg im). The “≧50% Suppression Duration” value in data set [2] (100 mg/kg ip), in [2] (100 mg/kg po) and in data set [2] (100 mg/kg sc) was 8 h throughout. The “LH in CX rats” value is on record as “suppresses LH” in [2] (20 mg/kg im); “dose-dependent suppression of LH” in data set [2] (1.0, 5.0 & 10 mg/kg, iv); “suppresses LH” in [2] (20 or 100 mg/kg, ip). In data set [3], the “Human pmol/min/mg 1 μM” value turned out to be 630 pmol/min/mg. Further, in [4], the “Rat female pmol/min/mg 1 μM” value is on record as 94 pmol/min/mg. In [5], the “Dog pmol/min/mg 1 μM” value is given as 2159 pmol/min/mg. The “Monkey pmol/min/mg 1 μM” value in data set [6] amounted to 9277 pmol/min/mg. For the same compound, the Ki in [7] is over 4400 nM; in data set [8] it was 3720 nM; in [9] it was 2400 nM.

On to `Cc1cc2c(cc1Cc1ccc(C(=O)NCc3cccc(CNc4ccnc(NC[C@@H]5CCCO5)n4)c3)o1)C(C)(C)CCC2(C)C` [Compound 136], for which the GnRH functional entry in [1] is recorded as “Antag- onist”. The “% Max LH Suppression” value in data set [2] (5.0 mg/kg iv) came to 48%; in data set [2] (10 mg/kg iv), 74%; in data set [2] (20 mg/kg iv), 98%. Moreover, the “time of % Max LH Suppression” value in data set [2] (5.0 mg/kg iv) is 1 h; in data set [2] (10 mg/kg iv), 2 h; in data set [2] (20 mg/kg iv) it was 4 h. Further, the results for the “≧50% Suppression Duration” value in data set [2] (5.0 mg/kg iv), in [2] (10 mg/kg iv) and in [2] (20 mg/kg iv) were 1.0 h, 6 h and “≧6 hr”, respectively. Further, the entries for the “Range of Plasma Conc.” value in data set [2] (20 mg/kg po) and in data set [2] (40 mg/kg po) were 0.29 µM and 0.72 µM, respectively. Also, in [3], the “Human pmol/min/mg 1 μM” value is 191 pmol/min/mg. The “Rat female pmol/min/mg 1 μM” value in [4] amounted to 271 pmol/min/mg. The “Dog pmol/min/mg 1 μM” value in data set [5] is listed as 3071 pmol/min/mg. The “Monkey pmol/min/mg 1 μM” value in data set [6] is on record as 5959 pmol/min/mg. In addition, the figures for the Ki in data set [7] and in data set [9] were 2400 nM and 160 nM, respectively.

With `COc1cc(OC)c(NC(=O)c2ccc(Cc3cc4c(cc3OC)C(C)(C)CCC4(C)C)o2)c(OC)c1` [Compound 169], the GnRH functional result in data set [1] is reported as “Antag- onist”. Besides, the “Human pmol/min/mg 1 μM” value in data set [3] is 589 pmol/min/mg. The “Dog pmol/min/mg 1 μM” value in data set [5] came to 2301 pmol/min/mg. Besides, the “Monkey pmol/min/mg 1 μM” value in data set [6] is 5940 pmol/min/mg. In addition, the Ki in data set [8] was 2710 nM; in [9], 3400 nM.
